These results are taken from patent publication US7517874B2 (priority 2007, dated 2009).

Where two headings read alike, the source gives them in different places.

The target of assay [1] is human CB1 receptor (hCB1) (Homo sapiens, UniProt P21554). Description: cell-based. Type of assay: cell-based. As to the method: (§1) The ability of compounds to act as agonists or inverse agonists at human CB2 and CB1 receptors (hCB2, hCB1, respectively) and at the rat CB2 receptor (rCB2) was determined by measuring changes in intracellular cAMP levels. Chinese Hamster Ovary (CHO-K1) cell lines stably expressing hCB2 (Genebank: X74328) or hCB1 (Genebank: X54937) were purchased from Euroscreen (Gosselies, Belgium). The rat CB2 receptor was expressed from genomic DNA (provided by M. Abood, California Pacific Medical Center) in CHO-K1 cells from expression plasmid vector, pcDNA3.1.
Chain of human CB1 receptor (hCB1) (P21554 whole entry): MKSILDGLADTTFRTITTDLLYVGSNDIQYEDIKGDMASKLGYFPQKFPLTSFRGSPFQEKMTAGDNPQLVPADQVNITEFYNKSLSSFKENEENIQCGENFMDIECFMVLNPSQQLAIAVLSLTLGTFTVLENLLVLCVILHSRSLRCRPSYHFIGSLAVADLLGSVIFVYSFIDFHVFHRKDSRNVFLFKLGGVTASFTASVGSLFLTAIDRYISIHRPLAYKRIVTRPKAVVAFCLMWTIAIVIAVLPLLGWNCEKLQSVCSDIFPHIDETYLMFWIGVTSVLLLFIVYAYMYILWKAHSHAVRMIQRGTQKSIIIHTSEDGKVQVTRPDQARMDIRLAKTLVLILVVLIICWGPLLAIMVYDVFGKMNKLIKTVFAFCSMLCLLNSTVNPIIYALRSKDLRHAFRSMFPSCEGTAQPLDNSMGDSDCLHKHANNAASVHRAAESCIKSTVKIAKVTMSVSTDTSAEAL
(§2) Cell lines were grown in suspension in EX-CELL 302 CHO Serum-free medium (Sigma, cat #14324C) supplemented with 1% Fetal Bovine Serum, glutamine and non-essential amino-acids under 0.4 mg/mL G418 selection.
(§3) Receptor mediated responses were determined by measuring changes in intracellular cAMP using LANCE cAMP detection kit (cat #AD0264, Perkin Elmer, Wellesley, Mass.) based on time-resolved fluorescence resonance energy transfer (TR-FRET). Changes in cAMP were determined in cells pre-incubated with IBMX (isobutyl methylxanthine) and prestimulated with NKH-477 (a water soluble forskolin derivative, cat #1603, Tocris, Ellisville, Mo.) to increase basal cAMP levels as detailed below.
(§4) On the day of the experiment, cells were spun at low speed for 5 min at room temperature. The supernatant was removed and cells were resuspended in stimulation buffer (Hanks Buffered Salt Solution/5 mM HEPES, containing 0.5 mM IBMX (cat #17018, Sigma) and 0.02% BSA (Perkin-Elmer, cat #CR84-100)). Cell clumps were removed by filtering through cell strainer 40 μm (BD Falcon, Discovery Labware, Bedford, Mass.) and diluted to 2×10^5 cells/mL. Antibody supplied with the LANCE cAMP immunoassay kit was then added according to the manufacturer's instructions. An aliquot of cells was taken for un-induced controls. To the remaining cells was added NKH-477 (a water soluble forskolin derivative, Tocris cat #1603) to a final concentration of 2-8 μM. Cells were then incubated for 30 min at room temperature prior to adding to Proxiplates containing test compounds (final DMSO concentration was less than 0.5%) with a Multidrop bulk dispenser, followed by a sixty minute incubation at room temperature. The response was stopped by addition of the detection mix supplied with the LANCE kit. The reagents were allowed to equilibrate for three hours prior to reading on an Envision multi-mode detector (Perkin-Elmer). TR-FRET was measured using a 330-380 nm excitation filter, a 665 nm emission filter, dichroic mirror 380 nm and Z=1 mm. Cyclic AMP concentrations in each well were back-calculated from a cAMP standard curve run concurrently during each assay. Each plate contained 16 wells of forskolin stimulated cells and 16 wells of forskolin plus CP55,940-treated cells. Cells were treated with 1 μM CP55,940 (Tocris cat. #0949). Concentrations of cAMP were expressed as a percent of the difference of these two groups of wells. Concentration-response data including EC50 (the concentration of compound producing 50% of the maximal response) and intrinsic activity (the percent maximal activation compared to full activation by CP55,940) were determined using a four-parameter non-linear regression algorithm (Xlfit equation 251, IDBS).

A further assay concerns the target T1, rat CB2 receptor (rCB2) (Rattus norvegicus, UniProt Q9QZN9).
T1 sequence (Q9QZN9 1-360): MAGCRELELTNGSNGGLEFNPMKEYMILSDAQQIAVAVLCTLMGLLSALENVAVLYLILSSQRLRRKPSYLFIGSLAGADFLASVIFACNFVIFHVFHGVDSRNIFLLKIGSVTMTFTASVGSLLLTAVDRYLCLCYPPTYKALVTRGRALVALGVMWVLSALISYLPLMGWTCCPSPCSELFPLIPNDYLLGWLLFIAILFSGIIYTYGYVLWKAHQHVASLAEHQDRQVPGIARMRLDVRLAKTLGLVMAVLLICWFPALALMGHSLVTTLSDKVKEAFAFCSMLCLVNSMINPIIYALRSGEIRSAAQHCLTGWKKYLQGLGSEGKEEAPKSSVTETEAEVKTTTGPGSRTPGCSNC
Kind of assay: cell-based. It counts as cell-based. To be noted: for +/− RCB2: agonist or inverse agonist at rCB2. As to the method: as §1, §2, §3, §4

Setting [2] is: groups >100 nM-10 μM and >10 μM, cAMP, CHO-K1 hCB1, read-out: EC50 HCB1.

Take `CNC(=O)[C@@H](NC(=O)c1nc(-c2cscc2C)n2c1CNCC2)C(C)(C)C` [Compound 21, (S)-N-(3,3-dimethyl-1-(methylamino)-1-oxobutan-2-yl)-3-(4-methylthiophen-3-yl)-5,6,7,8-tetrahydroimidazo[1,5-a]pyrazine-1-carboxamide]: in assay [1], the EC50 is above 10000 nM. For the same molecule, the “+/− RCB2” value on rat CB2 receptor (rCB2) is on record as “+”.

As for `CNC(=O)[C@H](C)NC(=O)c1nc(-c2ccccc2)n2c1CNCC2` [Compound 28, (S)-N-(1-(methylamino)-1-oxopropan-2-yl)-3-phenyl-5,6,7,8-tetrahydroimidazo[1,5-a]pyrazine-1-carboxamide], the concentration for a half-maximal effect (EC50) is above 10000 nM in assay [1] (setting [2]); above 10000 nM at rat CB2 receptor (rCB2) (groups >100 nM-10 μM and >10 μM, cAMP, CHO-K1 rCB2, read-out: EC50 RCB2).

In the case of `CNC(=O)[C@@H](NC(=O)c1nc(/C=C/CCO)n2c1CN(C)CCC2)C(C)(C)C` [Compound 514, (S,E)-N-(3,3-dimethyl-1-(methylamino)-1-oxobutan-2-yl)-3-(4-hydroxybut-1-enyl)-8-methyl-6,7,8,9-tetrahydro-5H-imidazo[1,5-a][1,4]diazepine-1-carboxamide], the “+/− HCB1” value in assay [1] (agonist or inverse agonist at hCB1) is recorded as “+”. Moreover, the “+/− RCB2” value at rat CB2 receptor (rCB2) was “+”. Molecule `CNC(=O)[C@@H](NC(=O)c1nc(-c2cccc(C(F)(F)F)c2)n2c1CNCC2)C(C)(C)C` [Compound 3, (S)-N-(3,3-dimethyl-1-(methylamino)-1-oxobutan-2-yl)-3-(3-(trifluoromethyl)phenyl)-5,6,7,8-tetrahydroimidazo[1,5-a]pyrazine-1-carboxamide] yielded a concentration giving a half-maximal response (EC50) in assay [1] above 10000 nM. Further, the “+/− RCB2” value at rat CB2 receptor (rCB2) is “−”. For `CNC(=O)[C@@H](NC(=O)c1nc(-c2ccccc2OC)n2c1CN(C)CCC2)C(C)(C)C` [Compound 325, (S)-N-(3,3-dimethyl-1-(methylamino)-1-oxobutan-2-yl)-3-(2-methoxyphenyl)-8-methyl-6,7,8,9-tetrahydro-5H-imidazo[1,5-a][1,4]diazepine-1-carboxamide], the EC50 in assay [1] is above 10000 nM. The “+/− RCB2” value on rat CB2 receptor (rCB2) was “+”. The like results for `CNC(=O)[C@@H](NC(=O)c1nc(-c2ccccc2)n2c1CNCC2)C(C)(C)C` [Compound 2, (S)-N-(3,3-dimethyl-1-(methylamino)-1-oxobutan-2-yl)-3-phenyl-5,6,7,8-tetrahydroimidazo[1,5-a]pyrazine-1-carboxamide] were, in that order, above 10000 nM and “+”.

On to `CNC(=O)[C@@H](NC(=O)c1nc(-c2cccc(OC)c2F)n2c1CN(C)CCC2)C(C)(C)C` [Compound 346, (S)-N-(3,3-dimethyl-1-(methylamino)-1-oxobutan-2-yl)-3-(2-fluoro-3-methoxyphenyl)-8-methyl-6,7,8,9-tetrahydro-5H-imidazo[1,5-a][1,4]diazepine-1-carboxamide], for which the half-maximal effective concentration (EC50) in assay [1] was above 10000 nM. Further, on rat CB2 receptor (rCB2), the “+/− RCB2” value is “−”. As for `COC(=O)N1CCn2c(-c3ccccc3)nc(C(=O)NCC3CCOCC3)c2C1` [Compound 186, methyl 3-phenyl-1-((tetrahydro-2H-pyran-4-yl)methylcarbamoyl)-5,6-dihydroimidazo[1,5-a]pyrazine-7(8H)-carboxylate], the EC50 in assay [1] was above 10000 nM. Moreover, at rat CB2 receptor (rCB2), the “+/− RCB2” value is reported as “−”. In the same order, the values of `CNC(=O)[C@@H](NC(=O)c1nc(-c2ccsc2)n2c1CNCC2)C(C)(C)C` [Compound 11, (S)-N-(3,3-dimethyl-1-(methylamino)-1-oxobutan-2-yl)-3-(thiophen-3-yl)-5,6,7,8-tetrahydroimidazo[1,5-a]pyrazine-1-carboxamide] are above 10000 nM and “+”. In the same order, the values of `CC(C)CN1CCn2c(-c3ccccc3)nc(C(=O)N[C@H](C)C3CCCCC3)c2C1` [Compound 163, (R)-N-(1-cyclohexylethyl)-7-isobutyl-3-phenyl-5,6,7,8-tetrahydroimidazo[1,5-a]pyrazine-1-carboxamide] are above 10000 nM and “−”. The like results for `CNC(=O)[C@@H](NC(=O)c1nc(-c2cc(Cl)ccc2F)n2c1CN(C)CC2)C(C)(C)C` [Compound 246, (S)-3-(5-chloro-2-fluorophenyl)-N-(3,3-dimethyl-1-(methylamino)-1-oxobutan-2-yl)-7-methyl-5,6,7,8-tetrahydroimidazo[1,5-a]pyrazine-1-carboxamide] were, in that order, above 10000 nM and “−”. In the case of `C[C@H](NC(=O)c1nc(-c2ccccc2)n2c1CN(C(=O)C1CC1)CC2)c1ccccc1` [Compound 124, (S)-7-(cyclopropanecarbonyl)-3-phenyl-N-(1-phenylethyl)-5,6,7,8-tetrahydroimidazo[1,5-a]pyrazine-1-carboxamide], the EC50 in assay [1] was above 10000 nM. Besides, at rat CB2 receptor (rCB2), the “+/− RCB2” value was “−”. In assay [1], `CNC(=O)[C@@H](NC(=O)c1nc(-c2ccc(N3CCOCC3)cc2)n2c1CN(C)CCC2)C(C)(C)C` [Compound 378, (S)-N-(3,3-dimethyl-1-(methylamino)-1-oxobutan-2-yl)-8-methyl-3-(4-morpholinophenyl)-6,7,8,9-tetrahydro-5H-imidazo[1,5-a][1,4]diazepine-1-carboxamide] came in with an EC50 above 10000 nM. Moreover, the “+/− RCB2” value at rat CB2 receptor (rCB2) was “−”. Take `COC(=O)N1CCn2c(-c3ccccc3)nc(C(=O)Nc3ccccc3)c2C1` [Compound 181, methyl 3-phenyl-1-(phenylcarbamoyl)-5,6-dihydroimidazo[1,5-a]pyrazine-7(8H)-carboxylate]: in assay [1] (setting [2]), the EC50 is above 10000 nM. For the same molecule, the “+/− RCB2” value at rat CB2 receptor (rCB2) is given as “−”.

`CNC(=O)[C@@H](NC(=O)c1nc(C2CCCC2)n2c1CN(C)CCC2)C(C)(C)C` [Compound 497, (S)-3-cyclopentyl-N-(3,3-dimethyl-1-(methylamino)-1-oxobutan-2-yl)-8-methyl-6,7,8,9-tetrahydro-5H-imidazo[1,5-a][1,4]diazepine-1-carboxamide]: at rat CB2 receptor (rCB2), the “+/− RCB2” value is listed as “+”. Same read-out and setting: to `CNC(=O)[C@@H](NC(=O)c1nc(C2=CCCCO2)n2c1CN(C)CCC2)C(C)(C)C` [Compound 452, (S)-3-(3,4-dihydro-2H-pyran-6-yl)-N-(3,3-dimethyl-1-(metylamino)-1-oxobutan-2-yl)-8-methyl-6,7,8,9-tetrahydro-5H-imidazo[1,5-a][1,4]diazepine-1-carboxamide] belongs “+”. Take `CNC(=O)[C@@H](NC(=O)c1nc(-c2ccc(Cl)cc2F)n2c1CN(C1CCNCC1)CCC2)C(C)(C)C` [Compound 526, (S)-3-(4-chloro-2-fluorophenyl)-N-(3,3-dimethyl-1-(methylamino)-1-oxobutan-2-yl)-8-(piperidin-4-yl)-6,7,8,9-tetrahydro-5H-imidazo[1,5-a][1,4]diazepine-1-carboxamide]: the 50% effective concentration (EC50) in assay [1] was above 10000 nM. The same measure, in the same setting: to `CC(C)(C)[C@@H](CO)NC(=O)c1nc(-c2ccccc2)n2c1CN(CC1CC1)CC2` [Compound 84, (S)-7-(cyclopropylmethyl)-N-(1-hydroxy-3,3-dimethylbutan-2-yl)-3-phenyl-5,6,7,8-tetrahydroimidazo[1,5-a]pyrazine-1-carboxamide] belongs above 10000 nM.

In assay [1], `CNC(=O)[C@@H](NC(=O)c1nc(-c2cscc2C)n2c1CN(C)CC2)C(C)(C)C` [Compound 81, (S)-N-(3,3-dimethyl-1-(methylamino)-1-oxobutan-2-yl)-7-methyl-3-(4-methylthiophen-3-yl)-5,6,7,8-tetrahydroimidazo[1,5-a]pyrazine-1-carboxamide] returned an EC50 above 10000 nM.
